The subject of series [1] is normal human epidermal keratinocytes (NHEK). Nature of the series: Preliminary cytotoxicity assay (WST-8) in keratinocytes. It is filed as cell-based. Conditions: 24 hours treatment, WST-8, ingredient on its own. How it is done: Normal human epidermal keratinocytes (NHEK) were seeded in 24-well plates and placed in culture medium (Keratinocyte-serum free media (SFM) supplemented with Epidermal Growth Factor at concentration 0.025 ug/ml and Pituitary extract at concentration of 0.05 mg/ml) for 24 hours. To determine suitable non-toxic ingredient concentrations, a cytotoxicity assay was first carried out where the NHEKs were treated with ingredients or ingredient blends for 24 hours before being incubated with WST-8 (highly water-soluble tetrazolium salt) which is reduced to a water-soluble orange coloured product (formazan) by viable, living cells and is quantified by optical density measurement at 450 nm using a spectrophotometer (VERSAmax, Molecular Devices). This reduction is proportional to the number of living cells and their metabolic activity
(In general: Tetrazolium dyes change colour on reduction, which living cells bring about.)

The subject of series [2] is Interleukin-8 (IL-8) mRNA. Nature of the series: IL-8 mRNA expression by RT-qPCR in NHEK. It is filed as cell-based, human. Conditions: 24 hours, used on its own, vs media only control. How it is done:
Interleukin 8 is a measurable biomarker for inflammation. The effectiveness of the presently described compositions in reducing inflammation, and promoting skin barrier repair, are assessed by measuring the reduction in the expression of Interleukin-8 (IL-8) in the skin cells tested. Over expression of IL-8 in the epidermis can lead to disruption of epidermal homeostasis i.e. disruption of the skin cell differentiation, proliferation and desquamation processes.
In the present experiment, the effects of compounds were assessed in normal human epidermal keratinocytes (NHEK). More specifically, the effects of these compounds were evaluated using real time polymerase chain reaction (RT-qPCR) technology. […]
IL-8 mRNA expression was analysed using RT-qPCR as part of this array. […] The amount and quality of mRNA was evaluated using capillary electrophoresis with a Bioanalyzer 2100 (Agilent technologies). […] The cDNA quantities were then diluted if necessary, to achieve equal amount of cDNA concentration in each test sample, before carrying out PCR (Polymerase Chain Reaction) using the LightCycler (trade name) system (commercially available from Roche Molecular System Inc.) according to the supplier's instructions. […] The more copies of DNA/cDNA that have been produced through PCR, the more SYBR Green molecules will bind the DNA/cDNA and the higher the level of fluorescence. […]

Consider `NC(=O)c1cccnc1` [Niacinamide, niacinamide], for which the “maximum concentration usable without causing a loss in viability or death of the epidermal keratinocytes” value in series [1] is listed as 500 ppm. Further, the “increase of IL-8 mRNA expression” value in series [2] worked out at 18%.

Source of the values: US20250161201A1, “COSMETIC COMPOSITION” (THE BOOTS COMPANY PLC, priority 2022, published 2025).
